In patent US20240398812A1 (Caraway Therapeutics, Inc., priority 2021, published 2024) one finds EC50 data, which are given here for 19 compounds.

A value given as a limit tells only on which side of the number the result lay.

The target of assay [1] is human TRPML1 (Homo sapiens, UniProt Q9GZU1). The experiment in a line: Fluorescent TRPML1 assay (Fluo4-AM calcium fluorescence, HEK-293 Trex cells). In kind it is cell-based. The settings on record: Table 3, compounds 101-177. The method, then: (§1) HEK-293 Trex cells were stably transfected with a construct consisting of the human coding sequence for TRPML1 cloned into the tet-inducible plasmid pCDNA5 T/O. Mutations were introduced into the TRPML1 sequence to facilitate expression on the cell surface (Silvia Vergarajauregui, Rosa Puertollano Traffic. 2006 March; 7 (3): 337-353). Briefly, the cells are cultured in 150 mm round tissue culture dishes containing 20 mL of media. The day before the assay the cells are rinsed with DPBS —Ca—Mg and then treated briefly with Trypsin-EDTA. The Trypsin-EDTA is diluted with growth media, and cells are counted. 38×10^6 cells are re-plated into 150 mm round tissue culture dishes in media containing 0.5 ug/mL doxycycline to induce expression of hTRPML1.
(§2) The day of the experiment cells are lifted from the plates as above and collected by centrifugation. The cells are then suspended in dye loading buffer consisting of Ringer's solution supplemented with 0.1% Pluronic Acid and 1 micromolar Fluo4-AM dye. Cells are loaded for ˜60 minutes in the dark with occasional mixing. The cells are collected by centrifugation, the loading media aspirated, and the cells resuspended in 25 mL Ringer's solution and incubated ˜60 minutes in the dark. The cells are again collected by centrifugation, rinsed in Ringer's Solution and resuspended to 0.2×10^6 cells/mL in modified Ringer's solution containing 10 mM calcium.
(§3) Compounds are dissolved to a concentration of 10 millimolar with DMSO. Compound plates are created by dispensing compounds into 384 well black wall clear bottom plates (Greiner 781091). Positive and negative controls are included on each plate. Typically, different amounts of each compound are tested ranging from 100 nanoMoles (20 micromolar final concentration) decreasing in half-log steps to 31 picoMoles (6 nanomolar final concentration). Each concentration is typically tested in triplicate.
(§4) 50 microliters of dye-loaded cells are dispensed into each well of the compound assay plate created above. The fluorescence in each well is then determined with an excitation wavelength of 480 nm and an emission wavelength of 540 nm using either a Molecular Devices SpectraMax multimode plate reader or a Hamamatsu FDSS/uCell plate imager.
(§5) The resulting fluorescence for each well is exported as an ascii file and loaded into our LIMS for analysis. The percent activity of each compound at each concentration is determined by comparison to the positive and negative control wells included in each plate.
(§6) EC50 values were calculated using a non-linear regression of Prism. In the table, “A” indicates an EC50 of less than 100 nM, “B” indicates an EC50 range from 100 nM to 500 nM; “C” indicates an EC50 range from 500 nM to 2 μM; and “D” indicates an EC50 greater than 2 μM.

For assay [2], the target named is T1, TRPML3 (Homo sapiens, UniProt Q8TDD5).
T1 construct: expressed in transfected cells
T1 sequence (Q8TDD5 1-553): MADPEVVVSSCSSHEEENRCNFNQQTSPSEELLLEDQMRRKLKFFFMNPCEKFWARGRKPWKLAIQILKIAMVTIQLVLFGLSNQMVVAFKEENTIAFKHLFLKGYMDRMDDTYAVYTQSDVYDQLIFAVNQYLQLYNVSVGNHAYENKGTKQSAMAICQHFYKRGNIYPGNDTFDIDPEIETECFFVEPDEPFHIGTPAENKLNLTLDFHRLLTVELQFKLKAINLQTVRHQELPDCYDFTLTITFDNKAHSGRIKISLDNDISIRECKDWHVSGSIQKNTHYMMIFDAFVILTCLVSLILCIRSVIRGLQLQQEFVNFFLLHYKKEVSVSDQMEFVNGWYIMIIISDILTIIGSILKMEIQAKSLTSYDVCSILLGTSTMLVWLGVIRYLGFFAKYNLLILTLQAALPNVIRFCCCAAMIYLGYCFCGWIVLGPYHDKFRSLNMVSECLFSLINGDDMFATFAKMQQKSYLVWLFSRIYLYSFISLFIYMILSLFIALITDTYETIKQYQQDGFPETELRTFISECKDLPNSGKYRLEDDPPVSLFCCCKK
Description: Fluorescent TRPML3 assay (as for TRPML1). The assay is classed as cell-based. The settings on record: Table 3, compounds 101-177. The method, then: as §1, §2, §3, §4, §5
Assays for TRPML2 and TRPML3 were performed as above for TRPML1, by substituting the appropriate TRPML2 or TRPML3 subtype for the TRPML1.
as §6

Chain of human TRPML1 (Q9GZU1 whole entry L15A/L16A/L577A/L578A, form open): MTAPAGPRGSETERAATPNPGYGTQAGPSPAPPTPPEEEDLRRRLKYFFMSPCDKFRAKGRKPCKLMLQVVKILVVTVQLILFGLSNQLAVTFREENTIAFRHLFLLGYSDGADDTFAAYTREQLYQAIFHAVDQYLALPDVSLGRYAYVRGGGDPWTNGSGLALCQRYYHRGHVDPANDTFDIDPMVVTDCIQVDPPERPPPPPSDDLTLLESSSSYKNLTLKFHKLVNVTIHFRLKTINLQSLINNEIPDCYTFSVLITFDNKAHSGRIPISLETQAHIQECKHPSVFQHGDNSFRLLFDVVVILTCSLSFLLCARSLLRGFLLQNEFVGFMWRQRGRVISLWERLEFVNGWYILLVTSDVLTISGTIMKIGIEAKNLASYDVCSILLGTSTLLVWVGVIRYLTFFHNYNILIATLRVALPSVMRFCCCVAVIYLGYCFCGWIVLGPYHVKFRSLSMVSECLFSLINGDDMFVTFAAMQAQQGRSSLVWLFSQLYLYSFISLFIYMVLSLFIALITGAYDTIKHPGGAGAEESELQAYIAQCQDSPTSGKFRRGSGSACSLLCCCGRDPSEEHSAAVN

For orientation: EC50 means the concentration that produces a half-maximal response. Turning to `C[C@H]1CN(C(=O)CC(C)(C)C)CCN1c1ncnc2c1c(C1CC1)cn2-c1cc(C#N)ccn1` [Compound 136, (S)-2-(5-cyclopropyl-4-(4-(3,3-dimethylbutanoyl)-2-methylpiperazin-1-yl)-7H-pyrrolo[2,3-d]pyrimidin-7-yl)isonicotinonitrile], the EC50 in assay [1] and in assay [2] was 100 to 500 nM each time.
For `CC(C)CC(=O)N1CCN(c2ncnc3c2c(C2CC2)cn3-c2cc(C#N)ccn2)[C@@H](C)C1` [Compound 137, (S)-2-(5-cyclopropyl-4-(2-methyl-4-(3-methylbutanoyl)piperazin-1-yl)-7H-pyrrolo[2,3-d]pyrimidin-7-yl)isonicotinonitrile], the EC50 in assay [1] is under 100 nM; in assay [2], over 2000 nM.
The like results for `CC(C)C(=O)N1CCN(c2ncnc3c2c(-c2ccccc2F)cn3-c2cc(C#N)ccn2)[C@H](C)C1` [Compound 138, (R)-2-(5-(2-fluorophenyl)-4-(4-isobutyryl-2-methylpiperazin-1-yl)-7H-pyrrolo[2,3-d]pyrimidin-7-yl)isonicotinonitrile] were, in that order, 100 to 500 nM and under 100 nM.
The like results for `CC(C)C(=O)N1CCN(c2ncnc3c2c(-c2ccccc2F)cn3-c2ncc(C#N)s2)[C@@H](C)C1` [Compound 142, (S)-2-(5-(2-fluorophenyl)-4-(4-isobutyryl-2-methylpiperazin-1-yl)-7H-pyrrolo[2,3-d]pyrimidin-7-yl) thiazole-5-carbonitrile] were, in that order, 100 to 500 nM and 100 to 500 nM.
The like results for `CC(C)C(=O)N1CCN(c2ncnc3c2c(-c2ccccc2F)cn3-c2cc(C#N)ccn2)CC12CC2` [Compound 145, 2-(5-(2-fluorophenyl)-4-(4-isobutyryl-4,7-diazaspiro[2.5]octan-7-yl)-7H-pyrrolo[2,3-d]pyrimidin-7-yl)isonicotinonitrile] were, in that order, 100 to 500 nM and under 100 nM.
With `CCN(CC)c1cn(-c2cccc(Cl)c2)c2ncnc(N3CCN(C(=O)C(C)C)C[C@@H]3C)c12` [Compound 147, (S)-1-(4-(7-(3-chlorophenyl)-5-(diethylamino)-7H-pyrrolo[2,3-d]pyrimidin-4-yl)-3-methylpiperazin-1-yl)-2-methylpropan-1-one], the EC50 in assay [1] and in assay [2] was 500 to 2000 nM throughout.
For `CC(C)C(=O)N1CCN(c2ncnc3c2c(N2CCCC2)cn3-c2cc(C#N)ccn2)C[C@H]1C` [Compound 148, (R)-2-(4-(4-isobutyryl-3-methylpiperazin-1-yl)-5-(pyrrolidin-1-yl)-7H-pyrrolo[2,3-d]pyrimidin-7-yl)isonicotinonitrile], the EC50 in assay [1] was 500 to 2000 nM; in assay [2], 100 to 500 nM.
Regarding `CC(C)C(=O)N1CCN(c2ncnc3c2c(C2CCC2)cn3-c2cc(C#N)ccn2)[C@@H](C)C1` [Compound 150, (S)-2-(5-cyclobutyl-4-(4-isobutyryl-2-methylpiperazin-1-yl)-7H-pyrrolo[2,3-d]pyrimidin-7-yl)isonicotinonitrile], the EC50 in assay [1] and in assay [2] was 500 to 2000 nM throughout.
Consider `CCN(CC)c1cn(-c2cc(C#N)ccn2)c2ncnc(N3CCN(C(=O)C(C)C)C[C@@H]3C)c12` [Compound 151, (S)-2-(5-(diethylamino)-4-(4-isobutyryl-2-methylpiperazin-1-yl)-7H-pyrrolo[2,3-d]pyrimidin-7-yl)isonicotinonitrile], for which the EC50 in assay [1] and in assay [2] was 100 to 500 nM throughout.
Turning to `CC(C)C(=O)N1CCN(c2ncnc3c2c(-c2ccccc2F)cn3-c2cc(C#N)ncn2)[C@@H](C)C1` [Compound 152, (S)-6-(5-(2-fluorophenyl)-4-(4-isobutyryl-2-methylpiperazin-1-yl)-7H-pyrrolo[2,3-d]pyrimidin-7-yl)pyrimidine-4-carbonitrile], the EC50 was 100 to 500 nM in assay [1] and under 100 nM in assay [2].
As for `CC(C)C(=O)N1CCN(c2ncnc3c2c(-c2ccccc2F)cn3-c2nccc(C#N)n2)[C@@H](C)C1` [Compound 156, (S)-2-(5-(2-fluorophenyl)-4-(4-isobutyryl-2-methylpiperazin-1-yl)-7H-pyrrolo[2,3-d]pyrimidin-7-yl)pyrimidine-4-carbonitrile], the EC50 in assay [1] and in assay [2] was 500 to 2000 nM each time.
As for `CC(C)C(=O)N1CCN(c2ncnc3c2c(-c2ccccc2F)cn3-c2cc(C#N)n(C)c2)[C@@H](C)C1` [Compound 157, (S)-4-(5-(2-fluorophenyl)-4-(4-isobutyryl-2-methylpiperazin-1-yl)-7H-pyrrolo[2,3-d]pyrimidin-7-yl)-1-methyl-1H-pyrrole-2-carbonitrile], the EC50 in assay [1] was in the range of 100 to 500 nM; in assay [2], 500 to 2000 nM.
As to `C[C@H]1CN(C(=O)C(C)(C)O)CCN1c1ncnc2c1c(-c1ccccc1F)cn2-c1cc(C#N)ccn1` [Compound 159, (S)-2-(5-(2-fluorophenyl)-4-(4-(2-hydroxy-2-methylpropanoyl)-2-methylpiperazin-1-yl)-7H-pyrrolo[2,3-d]pyrimidin-7-yl)isonicotinonitrile], the values for the EC50 in assay [1] and in assay [2] were under 100 nM and 100 to 500 nM, respectively.
The like results for `C[C@H]1CN(C(=O)C(C)(C)O)CCN1c1ncnc2c1c(C1CC1)cn2-c1cc(C#N)ccn1` [Compound 160, (S)-2-(5-cyclopropyl-4-(4-(2-hydroxy-2-methylpropanoyl)-2-methylpiperazin-1-yl)-7H-pyrrolo[2,3-d]pyrimidin-7-yl)isonicotinonitrile] were, in that order, 100 to 500 nM and over 2000 nM.
On the same counts, the results for `C[C@H]1CN(C(=O)C(C)(C)O)CCN1c1ncnc2c1c(N1CCC1)cn2-c1cc(C#N)ccn1` [Compound 162, (S)-2-(5-(azetidin-1-yl)-4-(4-(2-hydroxy-2-methylpropanoyl)-2-methylpiperazin-1-yl)-7H-pyrrolo[2,3-d]pyrimidin-7-yl)isonicotinonitrile] are 100 to 500 nM and 500 to 2000 nM.
`CCCN(CC)c1cn(-c2cc(C#N)ccn2)c2ncnc(N3CCN(C(=O)C(C)C)C[C@@H]3C)c12` [Compound 163, (S)-2-(5-(ethyl(propyl)amino)-4-(4-isobutyryl-2-methylpiperazin-1-yl)-7H-pyrrolo[2,3-d]pyrimidin-7-yl)isonicotinonitrile]: the EC50 in assay [1] was under 100 nM; in assay [2] it was 100 to 500 nM.
The like results for `CCCN(CC)c1cn(-c2cc(C#N)ccn2)c2ncnc(N3CCN(C(=O)C(C)(C)C)C[C@@H]3C)c12` [Compound 164] were, in that order, under 100 nM and under 100 nM.
The like results for `CC(C)C(=O)N1C[C@H](C)N(c2ncnc3c2c(-c2ccccc2F)cn3-c2cc(F)ccn2)C[C@H]1C` [Compound 167, 1-((2R,5S)-4-(5-(2-fluorophenyl)-7-(4-fluoropyridin-2-yl)-7H-pyrrolo[2,3-d]pyrimidin-4-yl)-2,5-dimethylpiperazin-1-yl)-2-methylpropan-1-one] were, in that order, under 100 nM and under 100 nM.
Turning to `CC(C)C(=O)N1C[C@H](C)N(c2ncnc3c2c(-c2ccccc2F)cn3-c2cc(Cl)ccn2)C[C@H]1C` [Compound 168, 1-((2R,5S)-4-(7-(4-chloropyridin-2-yl)-5-(2-fluorophenyl)-7H-pyrrolo[2,3-d]pyrimidin-4-yl)-2,5-dimethylpiperazin-1-yl)-2-methylpropan-1-one], the EC50 in assay [1] and in assay [2] was under 100 nM each time.
